# Measured values as given in PMC2362735, “New semisynthetic vinca alkaloids: chemical, biochemical and cellular studies” (British Journal of Cancer, 1999).
# Tested on: Mouse Ehrlich ascites tumour cells
# Assay: In vivo anti-tumour effect on Ehrlich ascites carcinoma, single i.p. dose 4 days after transplantation
# Excerpt: The numerous antimitotic drugs already developed and therapeu- tically used for a large number of pathologies belong to different classes based on their chemical structure and other distinctive features. Antimitotic drugs usually target the tubulin/microtubule network of the cytoskeleton that is formed by assembly of cyto- plasmic tubulin dimers. The stability of the different microtubular structures varies considerably; some of their functions depend on their lability. The lability is augmented by the extreme sensitivity to various drugs. Several synthetic and natural compounds interact specifically with tubulin and/or microtubule, fundamentally destroying its dynamic character and leading to cell death. […] Because of their extensive clinical use, it is important to synthesize additional agents having at least the same biological activity. […] Nevertheless, it is unclear yet how the anti-calmodulin activity of these drugs is related to their desired and undesired pharmacological effects. […] The synthesis of the KAR derivatives are presented. […] Taxol, GTP and trifluoperazine were purchased from Sigma. All organic reagents for synthesis of the new compounds were obtained from Aldrich and were of the highest grade. All other chemicals were reagent grade commercial preparations. […] Tubulin was stored in 1 M sucrose, 10 mM sodium phosphate buffer, 0.5 mM magnesium chloride and 0.1 mM GTP, pH 7.0, at -80C and dialysed against the appropriate buffer before use. […] PFK, aldolase and glycerol-3-phosphate dehydrogenase- triosephosphate isomerase purified from rabbit skeletal muscle were purchased in ammonium sulphate suspensions from Sigma or Boehringer. The enzyme suspensions were centrifuged at 10 000g for 5 min. The pellets were suspended in the appropriate buffer, then the enzymes were gel filtered or dialysed in the same buffer to remove ammonium sulphate. […] (Figure 1B; R1 , CH3; R2 , CH2 CH2 Cl). […] After 2 h incubation at room temperature, 200 ml dried toluene was added to the reaction mixture. […] The mixture was stirred for 30 min. After separation of the organic phase, it was washed with water (3 x 30 ml) and dried with potassium sulphate and evaporated on a water bath of 35-40C at 20-27 hPa. The resulting material was chromatographed on silica gel (500 g, bead size of 0.040- 0.063 mm) column (30 mm x 500 mm) using ethyl acetate/ethanol (9:1) mixture as eluent. […] The mixture was kept for 4 h at room temperature and then evaporated on a water bath at 40C under a vacuum of 80 hPa to a final volume of 5-6 ml. […] (Figure 1B, R1 , CHO; R2 , CH2 CH2 Cl). […] Synthesis of KAR-4 [3-allyl-2,4-dioxo-3,5-spiro-oxazolidino- 4-deacetoxy-vinblastine] (Figure 1B; R1 , CH3; R2 , CH2 CH=CH2 ). […] NMR measurements were carried out on a Varian Unity plus-500 instrument (500 MHz for 1H and 125 MHz for 13C) in DMSO. Chemical shifts were determined relative to dTMS = 0.00 p.p.m. 1H and 13C signal assignments were verified by a concerted use of two-dimensional 1H-1H and 1H-13C shift correlation methods (DQFCOSY, HSQC, HMBC) and NOESY experiments. The gradient-enhanced DQFCOSY, HSQC, HMBC and NOESY experiments were recorded by using the standard spectrometer software package. A mixing time of tmix = 0.5 s was used for the NOESY experiments.
# [1] = Table 2A, 40 mg kg-1 single dose i.p.
# [2] = Table 2B, 20 mg kg-1 single dose i.p.
# [3] = Table 2B, 40 mg kg-1 single dose i.p.
# [4] = Table 2B, 60 mg kg-1 single dose i.p.
# [5] = Table 2B, 80 mg kg-1 single dose i.p.
compound,measurement,setting,value
"CC[C@]1(O)C[C@@H]2CN(CCc3c([nH]c4ccccc34)[C@@](C(=O)OC)(c3cc4c(cc3OC)N(C)[C@@H]3[C@]45CCN4CC=C[C@@](CC)(C[C@@]36OC(=O)N(CCCl)C6=O)[C@H]45)C2)C1 [KAR-2, 3′-(β-chloroethyl)-2′,4′-dioxo-3,5′-spiro-oxazolidino-4-deacetoxy-vinblastine]",mortality of treated animals,"80 mg kg-1 single dose i.p., three mice per group",The animals were dying in the same day of the sacrifice
same,Cells ml-1 (per cent of control),[1],56 per cent of control
same,Total cells (per cent of control),[1],24 per cent of control
same,Volume of tumour per mouse,"Table 2A, 40 mg kg-1 single dose i.p., sacrifice 8 days after implantation, control 5.33 ml",2.33 mL
same,Cells ml-1 (per cent of control),[2],63 per cent of control
same,Total cells (per cent of control),[2],46 per cent of control
same,Volume of tumour per mouse,"Table 2B, 20 mg kg-1 single dose i.p., control 2.67 ml",1.97 mL
same,Cells ml-1 (per cent of control),[3],60 per cent of control
same,Total cells (per cent of control),[3],24 per cent of control
same,Volume of tumour per mouse,"Table 2B, 40 mg kg-1 single dose i.p., control 2.67 ml",1.17 mL
same,Cells ml-1 (per cent of control),[4],46 per cent of control
same,Total cells (per cent of control),[4],29 per cent of control
same,Volume of tumour per mouse,"Table 2B, 60 mg kg-1 single dose i.p., control 2.67 ml",1.70 mL
same,Cells ml-1 (per cent of control),[5],211 per cent of control
same,Total cells (per cent of control),[5],36 per cent of control
same,Volume of tumour per mouse,"Table 2B, 80 mg kg-1 single dose i.p., control 2.67 ml",0.45 mL
